Data as given in US20210363110A1, “4-METHYLDIHYDROPYRIMIDINONE COMPOUNDS AND PHARMACEUTICAL USE THEREOF” (Japan Tobacco Inc., priority 2018, published 2021).

Tests used:
human RORγ = target: T1, human RORγ (Homo sapiens, UniProt P51449); assay: Reporter gene assay for inhibitory effect against RORγ transcriptional activity (GAL4-hRORγ LBD, luciferase, CHO cells); assay type: cell-based; details: pFA/hRORγ + pG5-Luc, 2 days incubation
T1 construct: from Ser253 to Lys518 for human RORγ; expressed in transfected cells; host or cells: CHO cells (transient co-transfection with pG5-Luc)
T1 sequence (P51449 253-518): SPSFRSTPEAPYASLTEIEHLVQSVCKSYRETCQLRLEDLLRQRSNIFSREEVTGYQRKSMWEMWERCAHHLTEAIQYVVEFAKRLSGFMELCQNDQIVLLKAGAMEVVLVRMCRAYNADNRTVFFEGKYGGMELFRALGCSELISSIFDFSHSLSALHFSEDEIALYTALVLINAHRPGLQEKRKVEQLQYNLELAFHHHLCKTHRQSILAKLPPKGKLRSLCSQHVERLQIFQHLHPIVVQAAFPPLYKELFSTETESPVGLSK
Experimental: Inhibitory effect against RORγ transcriptional activity was assessed by reporter gene assay for test compounds.
cDNAs encoding human and mouse RORγ ligand binding domains (LBD) were obtained based on the sequences of human RORγ (Genbank registered number NM_005060.3) and mouse RORγ (Genbank registered number NM_011281.2) (LBD sequences: from Ser253 to Lys518 for human RORγ; from Ile251 to Lys516 for mouse RORγ).
LBD cDNAs of human and mouse RORγ were inserted into pFA-CMV vector (Agilent Technologies, Inc.), which expresses GAL4-DNA binding domain fusion protein. The resulting plasmids are hereinafter referred to as pFA/hRORγ plasmid and pFA/mRORγ plasmid, respectively. […]
Cell viability was tested by luminescence method with CellTiter-Glo (Promega). […] Ten minutes after the addition, luminescence was measured for each well with a microplate reader. The luminescence count in the cells treated with 0.2% DMSO alone was defined as 100%, and the cell viability after treatment with the test compound was calculated as a percentage (%-of-control) based on the value of 0.2% DMSO alone. When the cell viability was 70% or less, a test compound was assessed to have cytotoxicity.
RORγ transcriptional activity was detected as the intracellular luciferase activity using SteadyLite HTS Reporter Gene Assay System (Perkin Elmer). […]

[1] = Metabolic stability in liver microsomes, human; assay type: in vitro ADME; details: residual ratio of unreacted substance, 0.2 mg/mL microsomes, NADPH generating system
Experimental: A test solution was prepared by diluting 10 mM DMSO solution of a test substance with acetonitrile by 100 times.
Human and animal liver microsomes (SEKISUI XENOTECH; Human (H2610), Rat (R1000), Mouse (M1000), Monkey (P2000), Dog (D1000)) were adjusted with potassium phosphate buffer (pH 7.4) to 0.2 mg/mL in the reaction system. Then, 1% of the solution of a test substance prepared was added to the reaction system. Thereto was added an NADPH generating system (prepared according to the method of Non Patent Literature 28), and the metabolic reaction was initiated. At a designated time, 0.1% formic acid-acetonitrile/water (3:1) was added thereto, and the reaction was terminated.
(§1) The sample after termination of the reaction was separated by centrifugation (1400 g, 20 min.), and then the supernatant was measured by LC/MS (UPLC-SQD (waters)) to calculate a residual ratio of unreacted substances.

[2] = Metabolic stability in hepatocytes, dog; assay type: in vitro ADME; details: residual ratio of unreacted substance, 1×10^6 cells/mL
Experimental: A test solution was prepared by diluting 10 mM DMSO solution of a test substance with acetonitrile by 20 times.
Human and animal cryopreserved hepatocyte (BIOIVT; Human (IVT-X008000), Rat (IVT-M00005), Monkey (IVT-M00305), Dog (IVT-M00205)) were adjusted with William's Medium E (SIGMA; W1878) to 1×10^6 cells/mL of a cell suspension, which was then added to a 96-well plate. Then, 1% of the solution of a test substance prepared was added to the reaction system, and the metabolic reaction was initiated. At a designated time, 0.1% formic acid-acetonitrile was added thereto, and the reaction was terminated.
as §1

EC50 (human RORγ) [nM]	Metabolic stability in liver microsomes at 60 min., Human [1] [%]	Metabolic stability in hepatocytes at 240 min., Dog [2] [%]	Structure (SMILES)
23	99	88	CC(C)C1=CN(C23CC(C(=O)O)(C2)C3)C(=O)N[C@@]1(C)c1ccc([C@@H]2C[C@H]2C(C)(C)C)c(Cl)c1 [Compound (1), 3-{(S)-4-[4-((1R,2R)-2-tert-Butyl-cyclopropyl)-3-chloro-phenyl]-5-isopropyl-4-methyl-2-oxo-3,4-dihydro-2H-pyrimidin-1-yl}bicyclo[1.1.1]pentane-1-carboxylic acid]
14	96	78	CC[C@H](C)C1=CN(C23CC(C(=O)O)(C2)C3)C(=O)N[C@@]1(C)c1ccc([C@@H]2C[C@H]2C(C)(C)C)c(Cl)c1 [Compound (2), 3-{(S)-5-((S)-sec-Butyl)-4-[4-((1R,2R)-2-tert-butyl-cyclopropyl)-3-chloro-phenyl]-4-methyl-2-oxo-3,4-dihydro-2H-pyrimidin-1-yl}bicyclo[1.1.1]pentane-1-carboxylic acid]
